Assay results from patent publication US20220347175A1, “PYRIDAZINONE DERIVATIVE” (Sumitomo Dainippon Pharma Co., Ltd., priority 2018, published 2022).

Assays:
human Nav1.1 = target: T1, human Nav1.1 (Homo sapiens, UniProt P35498); assay: Amplification of Nav1.1-derived voltage-dependent sodium current (Nav1.1 current), cell line stably expressing human Nav1.1, automated patch clamp; type: cell-based; settings: for activation at 10 µM / activation at 3 µM / activation at 1 µM: read-out: Nav1.1 current amplification rate (%)
T1 construct: host or cells: HEK293
Method in brief: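 Automated whole-cell voltage-clamp recordings used HEK293 cells stably expressing human Nav1.1, keeping only cells with >500 pA current, with currents evoked by ramp voltage. Compounds were applied in extracellular fluid with 1% DMSO, and amplification (%) was computed from peak current or AUC after versus before addition.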

human Nav1.5 = target: T2, human Nav1.5 (Homo sapiens, UniProt Q14524); assay: Amplification of Nav1.5-derived voltage-dependent sodium current (Nav1.5 current), cell line stably expressing human Nav1.5, automated patch clamp; type: cell-based; settings: for activation at 10 µM / activation at 3 µM / activation at 1 µM: read-out: Nav1.5 current amplification rate (%)
T2 construct: expressed in transfected cells; host or cells: CHO-K1 (T-REx System, ThermoFisher Scientific)
T2 sequence (Q14524 1-2015 isoform Q14524-2): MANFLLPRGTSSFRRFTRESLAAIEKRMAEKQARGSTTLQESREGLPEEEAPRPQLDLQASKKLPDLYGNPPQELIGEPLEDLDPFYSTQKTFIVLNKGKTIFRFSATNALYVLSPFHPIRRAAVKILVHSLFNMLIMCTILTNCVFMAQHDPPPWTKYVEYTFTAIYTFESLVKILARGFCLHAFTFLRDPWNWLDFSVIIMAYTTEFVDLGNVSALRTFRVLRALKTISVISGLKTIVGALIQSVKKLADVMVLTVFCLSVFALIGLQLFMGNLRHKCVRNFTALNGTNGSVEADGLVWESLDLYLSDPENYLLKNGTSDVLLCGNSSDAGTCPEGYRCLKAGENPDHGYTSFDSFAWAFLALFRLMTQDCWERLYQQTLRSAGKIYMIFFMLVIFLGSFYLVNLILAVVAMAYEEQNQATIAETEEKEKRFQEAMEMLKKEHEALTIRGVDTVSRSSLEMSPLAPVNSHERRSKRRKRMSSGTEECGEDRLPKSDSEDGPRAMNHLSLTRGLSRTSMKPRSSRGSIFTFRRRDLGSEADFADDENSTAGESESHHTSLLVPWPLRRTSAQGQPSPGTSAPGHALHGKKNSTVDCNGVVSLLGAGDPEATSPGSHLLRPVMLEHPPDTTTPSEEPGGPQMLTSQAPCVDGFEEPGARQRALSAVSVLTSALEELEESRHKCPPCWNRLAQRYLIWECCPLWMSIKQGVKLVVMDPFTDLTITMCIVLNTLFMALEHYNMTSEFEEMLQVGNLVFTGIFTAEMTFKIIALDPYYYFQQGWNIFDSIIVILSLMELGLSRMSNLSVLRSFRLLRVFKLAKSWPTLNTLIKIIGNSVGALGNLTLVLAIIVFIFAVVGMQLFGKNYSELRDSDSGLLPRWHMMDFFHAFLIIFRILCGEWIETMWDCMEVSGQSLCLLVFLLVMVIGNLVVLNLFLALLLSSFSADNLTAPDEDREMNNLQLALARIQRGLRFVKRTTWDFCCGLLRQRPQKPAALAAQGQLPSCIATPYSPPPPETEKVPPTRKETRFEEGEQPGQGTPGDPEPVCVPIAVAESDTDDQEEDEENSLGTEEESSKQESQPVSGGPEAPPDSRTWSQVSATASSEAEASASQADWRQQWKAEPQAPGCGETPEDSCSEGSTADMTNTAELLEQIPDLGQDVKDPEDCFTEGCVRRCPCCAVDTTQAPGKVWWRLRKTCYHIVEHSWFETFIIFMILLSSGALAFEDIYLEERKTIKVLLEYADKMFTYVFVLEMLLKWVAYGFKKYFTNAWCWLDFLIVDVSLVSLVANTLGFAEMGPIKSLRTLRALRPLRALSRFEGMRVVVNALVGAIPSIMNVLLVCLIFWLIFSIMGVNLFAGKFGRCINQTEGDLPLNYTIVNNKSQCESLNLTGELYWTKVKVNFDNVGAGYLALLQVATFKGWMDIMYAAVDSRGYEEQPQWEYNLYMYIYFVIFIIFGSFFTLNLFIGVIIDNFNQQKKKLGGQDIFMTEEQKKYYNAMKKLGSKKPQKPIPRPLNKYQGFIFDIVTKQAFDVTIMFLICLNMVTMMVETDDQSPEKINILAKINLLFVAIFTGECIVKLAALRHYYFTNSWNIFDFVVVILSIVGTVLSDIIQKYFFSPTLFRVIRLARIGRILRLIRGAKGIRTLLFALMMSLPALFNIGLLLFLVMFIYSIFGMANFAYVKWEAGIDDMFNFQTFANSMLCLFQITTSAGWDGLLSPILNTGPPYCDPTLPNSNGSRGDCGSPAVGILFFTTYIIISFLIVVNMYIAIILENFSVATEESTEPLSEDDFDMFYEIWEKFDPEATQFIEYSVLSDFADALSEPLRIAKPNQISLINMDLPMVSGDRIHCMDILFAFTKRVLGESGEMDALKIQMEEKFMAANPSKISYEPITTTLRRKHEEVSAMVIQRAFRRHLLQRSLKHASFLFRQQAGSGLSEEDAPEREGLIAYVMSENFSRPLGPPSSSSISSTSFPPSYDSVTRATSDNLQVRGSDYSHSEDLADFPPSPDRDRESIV

[1] = compound 1 μmol/L, HEK293 stably expressing human Nav1.1
[2] = compound 1 μmol/L, CHO-K1 stably expressing human Nav1.5
[3] = 10 μmol/L compound, change of the area under the curve of Nav1.1 current (Test Result 1)
[4] = 10 μmol/L compound, change of the area under the curve of Nav1.5 current (Test Result 1)
[5] = compound 3 μmol/L, HEK293 stably expressing human Nav1.1
[6] = compound 3 μmol/L, CHO-K1 stably expressing human Nav1.5

Nav1.1 current amplification rate (%) (human Nav1.1; [3])	Structure (SMILES)	Nav1.5 current amplification rate (%) (human Nav1.5; [4])	further results
	CC1(C)CC=C(c2ccc(=O)n(CC(=O)N3CCc4c(N5CCOCC5)cccc43)n2)CC1 [Example 432]		Nav1.1 current amplification rate (%) (human Nav1.1; [1]): 280%; Nav1.5 current amplification rate (%) (human Nav1.5; [2]): 16%
192	CN1CCN(c2cccc3c2CCN3C(=O)Cn2nc(C3=CCC(C)(C)CC3)ccc2=O)CC1 [Example 433]	10	
232	COC1CN(c2cccc3c2CCN3C(=O)Cn2nc(C3=CCC(C)(C)CC3)ccc2=O)C1 [Example 434]	142	
262	COCOc1cccc2c1CCN2C(=O)Cn1nc(C2=CCC(C)(C)CC2)ccc1=O [Example 435]	14	
226	CC1(C)CC=C(c2ccc(=O)n(CC(=O)N3CCc4c(OC5COC5)cccc43)n2)CC1 [Example 436]	31	
	CC1(C)CC=C(c2ccc(=O)n(CC(=O)N3CCc4c(C5CN(C(=O)CO)C5)cccc43)n2)CC1 [Example 437]		Nav1.1 current amplification rate (%) (human Nav1.1; [5]): 582%; Nav1.5 current amplification rate (%) (human Nav1.5; [6]): 194%
	CC1(C)CC=C(c2ccc(=O)n(CC(=O)N3CCc4c(C5CN(C6COC6)C5)cccc43)n2)CC1 [Example 438]		Nav1.1 current amplification rate (%) (human Nav1.1; [5]): 404%; Nav1.5 current amplification rate (%) (human Nav1.5; [6]): 25%
87	CC1(C)CC=C(c2ccc(=O)n(CC(=O)N3CCN(c4ccccn4)CC3)n2)CC1 [Example 439]	−4	
196	CC1(C)CC=C(c2ccc(=O)n(CC(=O)N3CCN(c4cccnc4)CC3)n2)CC1 [Example 440]	7	
30	CC1(C)CC=C(c2ccc(=O)n(CC(=O)N3CCC4(CCOCC4)CC3)n2)CC1 [Example 441]	1	
414	Cc1cncc(N2CCN(C(=O)Cn3nc(C4=CCC(C)(C)CC4)ccc3=O)CC2)c1 [Example 442]	27	
114	Cc1ccc(N2CCN(C(=O)Cn3nc(C4=CCC(C)(C)CC4)ccc3=O)CC2)cn1 [Example 443]	1	
292	CC1(C)CC=C(c2ccc(=O)n(CC(=O)N3CCN(c4cncc(F)c4)CC3)n2)CC1 [Example 444]	10	
	CC1(C)CC=C(c2ccc(=O)n(CC(=O)Nc3ccc4ocnc4c3)n2)CC1 [Example 445, N-(1,3-benzooxazol-5-yl)-2-[3-(4,4-dimethylcyclohex-1-en-1-yl)-6-oxopyridazin-1(6H)-yl]acetamide]		activation at 10 µM (human Nav1.1; [3]): 320%; activation at 10 µM (human Nav1.5; [4]): 52%
333	O=C(Cn1nc(C2=CCC(C(F)(F)F)CC2)ccc1=O)Nc1ccc2ocnc2c1 (stereo not shown) [Example 446]	10	
148	COc1cc(C2=CCC(C(F)(F)F)CC2)nn(CC(=O)Nc2ccc3ocnc3c2)c1=O (stereo not shown) [Example 447]	6	
250	COc1cc(C2=CCC(C)CC2)nn(CC(=O)Nc2ccc3ocnc3c2)c1=O (stereo not shown) [Example 449]	12	
187	COc1cc(=O)n(CC(=O)Nc2ccc3ocnc3c2)nc1C1=CCC(C(F)(F)F)CC1 (stereo not shown) [Example 450]	5	
365	COc1cc(=O)n(CC(=O)Nc2ccc3ocnc3c2)nc1C1=CCC(C)(C)CC1 [Example 451]	30	
10	Cc1ccc(-c2ccc(=O)n(CC(=O)Nc3ccc4ocnc4c3)n2)cn1 [Example 452]	2	
15	O=C(Cn1nc(-c2ccc(C(F)(F)F)nc2)ccc1=O)Nc1ccc2ocnc2c1 [Example 453]	1	
157	O=C(Cn1nc(-c2cc(Cl)cs2)ccc1=O)Nc1ccc2ocnc2c1 [Example 454]	35	
131	Cc1ccc(-c2ccc(=O)n(CC(=O)Nc3ccc4ocnc4c3)n2)s1 [Example 455]	21	
224	COc1cc(C2=CCC(C)(C)CC2)nn(CC(=O)Nc2ccn3ccnc3c2)c1=O [Example 456]	29	
24	O=C(Cn1nc(C2=CCCCC2)ccc1=O)Nc1ccn2ccnc2c1 [Example 458]	0	

Nav1.1 current amplification rate (%) (human Nav1.1; [3])	Structure (SMILES)	Nav1.5 current amplification rate (%) (human Nav1.5; [4])	further results
118	COc1cc(=O)n(CC(=O)Nc2ccn3ccnc3c2)nc1C1=CCC(C)(C)CC1 [Example 459]	21	
221	Cc1cc(C2=CCC(C)(C)CC2)nn(CC(=O)Nc2ccn3ccnc3c2)c1=O [Example 460]	46	
337	Cc1cc(=O)n(CC(=O)Nc2ccn3ccnc3c2)nc1C1=CCC(C)(C)CC1 [Example 461]	50	
124	COc1cc(C2=CCC(C(F)(F)F)CC2)nn(CC(=O)Nc2ccn3ccnc3c2)c1=O (stereo not shown) [Example 462]	5	
218	COc1cc(C2=CCC(C)CC2)nn(CC(=O)Nc2ccn3ccnc3c2)c1=O (stereo not shown) [Example 463]	9	
18	O=C(Cn1nc(C2=CCC(F)(F)CC2)ccc1=O)Nc1ccn2ccnc2c1 [Example 464]	1	
186	CC1(C)CC=C(c2ccc(=O)n(CC(=O)Nc3ccn4ccnc4c3)n2)C1 [Example 465]	8	
233	COc1cc(-c2cc(Cl)cs2)nn(CC(=O)Nc2ccn3ccnc3c2)c1=O [Example 466]	38	
	COc1cc(C2=CCC(C)(C)CC2)nn(CC(=O)N2CCc3c(N4CCOCC4)cccc32)c1=O [Example 468]		Nav1.1 current amplification rate (%) (human Nav1.1; [1]): 275%; Nav1.5 current amplification rate (%) (human Nav1.5; [2]): 75%
243	O=C(Cn1nc(C2=CCC(F)(F)CC2)ccc1=O)N1CCc2c(N3CCOCC3)cccc21 [Example 469]	25	
522	COc1cc(=O)n(CC(=O)N2CCc3c(N4CCOCC4)cccc32)nc1C1=CCC(C)(C)CC1 [Example 470]	131	
633	CC1(C)CC=C(c2ccc(=O)n(CC(=O)N3CCc4c(N5CCOCC5)cccc43)n2)C1 [Example 475]	70	
420	COc1cc(-c2cc(Cl)cs2)nn(CC(=O)N2CCc3c(N4CCOCC4)cccc32)c1=O [Example 479]	135	
	O=C(Cn1nc(C2=CCCCC2)ccc1=O)N1CCc2c(N3CCOCC3)cccc21 [Example 480]		Nav1.1 current amplification rate (%) (human Nav1.1; [1]): 110%; Nav1.5 current amplification rate (%) (human Nav1.5; [2]): 7%
175	CC1(C)CC=C(c2ccc(=O)n(CC(=O)N3CCN(c4cncc(F)c4)CC3)n2)C1 [Example 483]	7	
264	COc1cc(C2=CCC(C)C2)nn(CC(=O)N2CCN(c3cncc(F)c3)CC2)c1=O (stereo not shown) [Example 485]	3	
29	O=C(Cn1nc(C2=CCC(F)(F)CC2)ccc1=O)N1CCN(c2cncc(F)c2)CC1 [Example 489]	0	
469	COc1cc(=O)n(CC(=O)N2CCN(c3cncc(F)c3)CC2)nc1C1=CCC(C)(C)CC1 [Example 490]	25	
	COc1nc2cc(NC(=O)Cn3nc(C4=CCC(C)(C)CC4)c(OC)cc3=O)ccc2o1 [Example 491]		activation at 3 µM (human Nav1.1; [5]): 157%; activation at 3 µM (human Nav1.5; [6]): 22%
	COc1cc(=O)n(CC(=O)Nc2ccc3oc(C)nc3c2)nc1C1=CCC(C)(C)CC1 [Example 492]		activation at 3 µM (human Nav1.1; [5]): 222%; activation at 3 µM (human Nav1.5; [6]): 16%
	COc1cc(=O)n(CC(=O)Nc2ccc3oc(C(F)F)nc3c2)nc1C1=CCC(C)(C)CC1 [Example 493]		activation at 3 µM (human Nav1.1; [5]): 317%; activation at 3 µM (human Nav1.5; [6]): 20%
	COc1nc2cc(NC(=O)Cn3nc(C4=CCC(C)(C)CC4)c(OC)cc3=O)cc(F)c2o1 [Example 494]		activation at 3 µM (human Nav1.1; [5]): 255%; activation at 3 µM (human Nav1.5; [6]): 26%
	Cc1cc(=O)n(CC(=O)Nc2ccn3ncnc3c2)nc1C1=CCC(C)CC1 (stereo not shown) [Example 502]		activation at 1 µM (human Nav1.1; [1]): 49%; activation at 1 µM (human Nav1.5; [2]): 7%
	Cc1cc(=O)n(CC(=O)Nc2ccn3ncnc3c2)nc1C1=CCC(C)(C)CC1 [Example 503]		activation at 1 µM (human Nav1.1; [1]): 58%; activation at 1 µM (human Nav1.5; [2]): 10%
	CC1(C)CC=C(c2ccc(=O)n(CC(=O)N3CCN(c4cccnc4)CC3)n2)C1 [Example 508]		activation at 10 µM (human Nav1.1; [3]): 24%; activation at 10 µM (human Nav1.5; [4]): -3%
